Results reported in patent US11530226B2, “Azepane inhibitors of menin-MLL interaction” (Janssen Pharmaceutica NV, priority 2016, dated 2022).
“And” between values parts separate entries of the source, which are not always exact repeats. Identical values can stand only once. Counter-ions that a name gives are not always drawn.

Assays:
[1] = test system: MV-4-1 1 cells (MLL-AF4); experiment: Proliferation assay (spheroid-like growth, 8 d, live-cell imaging), MV-4-11; type: cell-based, human; conditions: Homo sapiens, MV4-11, 192 h, MV-4-11 cells, absolute IC50 from AUC of confluence, read-out: (3) Spheroid assay MV-4-11 (IC50 (μM))
Experimental: The anti-proliferative effect of menin/MLL protein/protein interaction inhibitor test compounds was assessed in human leukemia cell lines. The cell lines MV-4-1 1 and MOLM14 harbor MEL translocations and express the MEL fusion proteins MLL-AF4 and MLL-AF9, respectively, as well as the wildtype protein from the second allele. […] K562 was used as a control cell line containing two MLL wildtype alleles in order to exclude compounds that display general cytotoxic effects.
MV-4-1 1 and MOLM14 were cultured in RPMI-1640 (Sigma Aldrich) supplemented with 10% fetal bovine serum (HyClone), 2 mM L-glutamine (Sigma Aldrich) and 50 μg/ml gentamycin (Gibco). K562 were propagated in RPMI-1640 (Sigma Aldrich) supplemented with 20% fetal bovine serum (HyClone), 2 mM L-glutamine (Sigma Aldrich) and 50 μg/ml gentamycin (Gibco).
In order to assess the anti-proliferative effects, 1,500 MV-4-1 1, 300 MOLM14 or 750 K562 cells were seeded in 200 μl media per well in 96-well round bottom, ultra-low attachment plates (Costar, catalogue number 7007). Cell seeding numbers were chosen based on growth curves to ensure linear growth throughout the experiment. Test compounds were added at different concentrations and the DMSO content was normalized to 0.3%>. Cells were incubated for 8d at 37° C. and 5% C02. Spheroid like growth was monitored in real-time by live-cell imaging (IncuCyteZOOM, Essenbio, 4× objective) acquiring one image every four hours for 8d. Confluence (%) as a measure of spheroid size was determined using an integrated analysis tool.
In order to determine the cumulative effect of the test compounds over time, the area under the curve (AUC) in a plot of confluence against time was calculated. Confluence at the beginning of the experiment (t=0) was used as baseline for the AUC calculation.
Absolute IC50 values were calculated according to the following procedure: % Control=(AUC sample/AUC control)*100 AUC control=mean AUC of control values(cells without compound/DMSO as vehicle control)
A non-linear curve fit was applied using the least squares (ordinary) fit method to the plot of % control versus compound concentration. Based on this, the absolute IC50 value (half maximal inhibitory concentration of the test compound causing an anti-proliferative effect of 50% relative to the vehicle control) was calculated.

[2] = target: T1, terbium chelate-labeled menin / FITC-MBM1 peptide (Menin/MLL) (Homo sapiens, UniProt O00255, T541A); experiment: Menin/MLL homogenous time-resolved fluorescence (HTRF) assay; type: binding; conditions: read-out: (2) Menin HTRF assay (IC50 (nM))
T1 construct: Menin (a. a. l-610-6×his tag) was labeled with terbium cryptate as follows
T1 sequence (O00255 with tags, fused parts or gaps T541A): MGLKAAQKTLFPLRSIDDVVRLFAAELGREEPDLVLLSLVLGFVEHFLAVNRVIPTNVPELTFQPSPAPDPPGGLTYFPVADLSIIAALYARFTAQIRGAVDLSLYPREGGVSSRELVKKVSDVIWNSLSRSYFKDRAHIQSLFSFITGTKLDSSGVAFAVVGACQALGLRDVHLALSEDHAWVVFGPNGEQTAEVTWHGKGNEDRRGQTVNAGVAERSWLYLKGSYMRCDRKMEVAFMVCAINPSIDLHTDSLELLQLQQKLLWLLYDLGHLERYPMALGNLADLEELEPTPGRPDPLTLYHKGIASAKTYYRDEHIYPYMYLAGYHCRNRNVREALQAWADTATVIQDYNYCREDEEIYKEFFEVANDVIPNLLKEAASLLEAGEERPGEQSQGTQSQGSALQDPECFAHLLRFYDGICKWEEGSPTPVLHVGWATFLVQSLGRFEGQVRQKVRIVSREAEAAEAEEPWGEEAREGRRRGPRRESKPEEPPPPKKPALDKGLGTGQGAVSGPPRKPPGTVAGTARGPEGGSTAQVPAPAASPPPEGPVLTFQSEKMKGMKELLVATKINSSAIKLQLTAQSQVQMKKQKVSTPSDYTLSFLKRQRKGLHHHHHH
Experimental: 2) Menin/MLL Homogenous Time-Resolved Fluorescence (HTRF) Assay
To an untreated, white 384-well microtiter plate was added 40 nL 200× test compound in DMSO and 4 μL 2× terbium chelate-labeled menin (vide infra for preparation) in assay buffer (40 mM Tris .HCl, pH 7.5, 50 mM NaCl, 1 mM DTT and 0.05% Pluronic F-127). After incubation of test compound and terbium chelate-labeled menin for 5 min at ambient temperature, 4 μL 2×FITC-MBM1 peptide (FITC-P-alanine-SARWRFPARPGT-NH2) in assay buffer was added, the microtiter plate centrifuged at 1000 rpm for 1 min and the assay mixtures incubated for 15 min at ambient temperature. The relative amount of menin ⋅FITC-MBM1 complex present in an assay mixture is determined by measuring the homogenous time-resolved fluorescence (HTRF) of the terbium/FITC donor/acceptor fluorphore pair using a BMG Pherastar plate reader (ex. 337 nm/terbium cm. 490 nm/FITC cm. 520 nm) at ambient temperature. The degree of fluorescence resonance energy transfer (the HTRF value) is expressed as the ratio of the fluorescence emission intensities of the FITC and terbium fluorophores (P^m 520 nm//F^em 490 nm). The final concentrations of reagents in the binding assay are 100 pM terbium chelate-labeled menin, 75 nM FITC-MBM1 peptide and 0.5%) DMSO in assay buffer. Dose-response titrations of test compounds are conducted using an 11 point, three-fold serial dilution scheme, starting typically at 25 μM.
Compound potencies were determined by first calculating % inhibition at each compound concentration according to equation 1: % inhibition=((HC−LC)−(HTRF^compound−LC))/(HC−LC))*100 (Eqn 1)
Where LC and HC are the HTRF values of the assay in the presence or absence of a saturating concentration of a compound that competes with FITC-MBM1 for binding to menin, and HTRF^compound is the measured HTRF value in the presence of the test compound. HC and LC HTRF values represent an average of at least 16 replicates per plate.
Where Bottom and Top are the lower and upper asymptotes of the dose-response curve, respectively, IC50 is the concentration of compound that yields 50% inhibition of signal and h is the Hill coefficient.
Preparation of Terbium cryptate labeling of Menin: Menin (a. a. l-610-6×his tag) was labeled with terbium cryptate as follows. 2 mg of Menin was buffer exchanged into 1× phosphate buffered saline. 16 uM Menin was incubated with 4-fold molar excess NHS-terbium cryptate (Cisbio Bioassays, Bedford, Mass.) for 2 hours at room temperature. The labeled protein was purified away from free label by running the reaction over a Superdex 200 Increase 10/300 GL column at 0.75 ml/min. Peak fractions were collected, aliquoted and frozen at −80° C.

Row | Compound | melting point | IC50 [1] | IC50 [2]
1 | FC(F)(F)Cc1cc2c(N3CCC[C@@H](NCc4ccccc4)CC3)ncnc2s1 (as salt: HCl) [Compound 3, (R)N-benzyl-1-(6-(2,2,2-trifluoroethyl)thieno[2,3-d]pyrimidin-4-yl)azepan-4-amine] | 130 °C | – | –
2 | FC(F)(F)Cc1cc2c(N3CCC[C@H](NCc4ccccc4)CC3)ncnc2s1 (as salt: HCl) [Compound 4, (S)-N-benzyl-1-(6-(2,2,2-trifluoroethyl)thieno[2,3-d]pyrimidin-4-yl)azepan-4-amine] | 230 °C | – | –
3 | Cc1ccc(CNC2CCCN(c3ncnc4sc(CC(F)(F)F)cc34)CC2)cc1 (centres unmarked) (as salt: HCl) [Compound 16] | 262 to 264 °C | – | –
4 | FC(F)CN[C@@H]1CCCN(c2ncnc3sc(CC(F)(F)F)cc23)CC1 (as salt: hydrochloride) [Compound 5] | 244 °C | – | –
5 | O=C(NC1CCCN(c2ncnc3sc(CC(F)(F)F)cc23)CC1)C1CC2(CC2)CN1 (centres unmarked) (as salt: hydrochloride) [Compound 10B] | 205 °C | – | –
6 | FC(F)(F)Cc1cc2c(N3CCCC(NCC4CCOCC4)CC3)ncnc2s1 (centres unmarked) (as salt: hydrochloride) [Compound 55] | 110 °C | – | –
7 | CN(C)CCCCN(Cc1cnn(C)c1)C1CCCN(c2ncnc3sc(CC(F)(F)F)cc23)CC1 (centres unmarked) (as salt: hydrochloride) [Compound 61] | 110 °C | – | –
8 | CN(C)CCCNC1CCCN(c2ncnc3sc(CC(F)(F)F)cc23)CC1 (centres unmarked) (as salt: hydrochloride) [Compound 62] | 130 °C | – | –
9 | Fc1ccc(CN[C@@H]2CCCN(c3ncnc4sc(CC(F)(F)F)cc34)CC2)c(F)c1 (single isomer, unassigned) (as salt: hydrochloride) [Compound 7A] | 176 °C | – | –
10 | Fc1ccc(CN[C@H]2CCCN(c3ncnc4sc(CC(F)(F)F)cc34)CC2)c(F)c1 (single isomer, unassigned) (as salt: hydrochloride) [Compound 7B] | 180 °C | – | –
11 | Cc1ccc(CN[C@@H]2CCCN(c3ncnc4sc(CC(F)(F)F)cc34)CC2)c(C)c1 (single isomer, unassigned) (as salt: hydrochloride) [Compound 9A] | 156 °C | – | –
12 | Cc1ccc(CN[C@H]2CCCN(c3ncnc4sc(CC(F)(F)F)cc34)CC2)c(C)c1 (single isomer, unassigned) (as salt: hydrochloride) [Compound 9B] | 160 °C | – | –
13 | CC(C)[C@H](N[C@H]1CCCN(c2ncnc3sc(CC(F)(F)F)cc23)CC1)C1CNC1 (single isomer, unassigned) (as salt: hydrochloride) [Compound 32] | 190 °C | – | –
14 | CC(C)[C@H](NC1CCCN(c2ncnc3sc(CC(F)(F)F)cc23)CC1)C1CNC1 (single isomer, unassigned) (as salt: hydrochloride) [Compound 33] | 200 °C | – | –
15 | CC(C)[C@@H](NC1CCCN(c2ncnc3sc(CC(F)(F)F)cc23)CC1)C1CNC1 (single isomer, unassigned) (as salt: hydrochloride) [Compound 34] | 188 °C | – | –
16 | CC(C)[C@@H](N[C@@H]1CCCN(c2ncnc3sc(CC(F)(F)F)cc23)CC1)C1CNC1 (single isomer, unassigned) (as salt: hydrochloride) [Compound 35] | 193 °C | – | –
17 | CC(C)[C@@H](N[C@H]1CCCN(c2ncnc3sc(CC(F)(F)F)cc23)CC1)C1CNC1 (single isomer, unassigned) (as salt: hydrochloride) [Compound 36] | 208 °C | – | –
18 | FC(F)(F)Cc1cc2c(N3CCCC(N4Cc5ccccc5C4)CC3)ncnc2s1 (centres unmarked) [Compound 6] | 111 °C and 111.41 °C | 2.2 µM | 60 nM
19 | CC(C)NC1CCCN(c2ncnc3sc(CC(F)(F)F)cc23)CC1 (centres unmarked) [Compound 12] | 94 °C | – | 5790 nM
20 | FC(F)(F)Cc1cc2c(N3CCCC(Oc4ccccc4)CC3)ncnc2s1 (centres unmarked) [Compound 15] | 110 °C | – | 606 nM

Other lines, results leading:

Row | melting point | IC50 [1] | IC50 [2] | Compound
21 | 160 °C | – | – | C[C@@H](N[C@@H]1CCCN(c2ncnc3sc(CC(F)(F)F)cc23)CC1)c1cnn(C)c1 (single isomer, unassigned) (as salt: HCl) [Compound 54A]
22 | 160 °C | – | – | C[C@H](N[C@@H]1CCCN(c2ncnc3sc(CC(F)(F)F)cc23)CC1)c1cnn(C)c1 (single isomer, unassigned) (as salt: HCl) [Compound 54B]
23 | 160 °C | – | – | C[C@@H](N[C@H]1CCCN(c2ncnc3sc(CC(F)(F)F)cc23)CC1)c1cnn(C)c1 (single isomer, unassigned) (as salt: HCl) [Compound 54D]
24 | 150 °C | – | – | CN(C)CCN(Cc1ccccc1)[C@@H]1CCCN(c2ncnc3sc(CC(F)(F)F)cc23)CC1 (single isomer, unassigned) (as salt: hydrochloride) [Compound 57A]
25 | 134 °C and 136 °C | – | – | C[C@H]1CCN(c2ncnc3sc(CC(F)(F)F)cc23)CC[C@H]1NCc1ccccc1 (single isomer, unassigned) (as salt: hydrochloride) [Compound 68A]
26 | 150 °C | – | – | C[C@@H]1CCN(c2ncnc3sc(CC(F)(F)F)cc23)CC[C@@H]1NCc1ccccc1 (single isomer, unassigned) (as salt: hydrochloride) [Compound 68B]
27 | – | 4.3 µM | 284 nM | Cn1ncc2c1CCC[C@@H]2N[C@@H]1CCCN(c2ncnc3sc(CC(F)(F)F)cc23)CC1 [Compound 65B]
28 | 164 °C | 3.6 µM | 396 nM | CC1CN(c2ncnc3sc(CC(F)(F)F)cc23)CCCC1NCc1ccccc1 (centres unmarked) [Compound 67A]
